Source: ChEMBL document CHEMBL1201862, “PubChem BioAssay data set” (2004)
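Step 1: Grow cells in 96-well plates. Step 2: Expose to compound for 48 hours at 5 concentrations. Step 3: Interpolate endpoints linearly; if unreached, use highest concentration. GI50 = concentration required for 50% inhibition of growth.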 Active and inactive are the calls of the source. Cut-off read from the data, not from the text of the source: active = GI50 up to about 1.1 µM and inactive = higher.

Legend:
Experiment in all cases: NCI-60 cell line screen, 48 h
OVCAR-5 = tested on: OVCAR-5
UACC-257 = tested on: UACC-257
OVCAR-4 = tested on: OVCAR-4
COLO 205 = tested on: COLO 205
MCF7 = tested on: MCF7
MDA-MB-231 = tested on: MDA-MB-231
HT-29 = tested on: HT-29
SF-268 = tested on: SF-268
SK-MEL-28 = tested on: SK-MEL-28
ACHN = tested on: ACHN
NCI-H226 = tested on: NCI-H226
786-0 = tested on: 786-0
MDA-MB-435 = tested on: MDA-MB-435
K562 = tested on: K562
SN12C = tested on: SN12C
TK-10 = tested on: TK-10
HOP-92 = tested on: HOP-92
Malme-3M = tested on: Malme-3M
A498 = tested on: A498

| Structure (SMILES) | GI50 (OVCAR-5) | GI50 (UACC-257) | GI50 (OVCAR-4) | GI50 (COLO 205) | GI50 (MCF7) | GI50 (MDA-MB-231) | GI50 (HT-29) | GI50 (SF-268) | GI50 (SK-MEL-28) | GI50 (ACHN) | GI50 (NCI-H226) | GI50 (786-0) | GI50 (MDA-MB-435) | GI50 (K562) | GI50 (SN12C) | GI50 (TK-10) | GI50 (HOP-92) | GI50 (Malme-3M) | GI50 (A498) |
| --- | --- | --- | --- | --- | --- | --- | --- | --- | --- | --- | --- | --- | --- | --- | --- | --- | --- | --- | --- |
| O=C1OC(C(O)CO)C(O)=C1O (stereo not given) | > 100 µM (inactive) | > 100 µM (inactive) | > 100 µM (inactive) | > 100 µM (inactive) | > 100 µM (inactive) | > 100 µM (inactive) | > 100 µM (inactive) | > 100 µM (inactive) | > 100 µM (inactive) | > 100 µM (inactive) | > 100 µM (inactive) | > 100 µM (inactive) | > 100 µM (inactive) | 65.8 µM (inactive) | > 100 µM (inactive) | > 100 µM (inactive) | > 100 µM (inactive) | > 100 µM (inactive) | – |
| O=Cc1ccccc1B(O)O | 87.5 µM (inactive) | 25.8 µM (inactive) | 0.368 µM (active) | 14.7 µM (inactive) | 29.4 µM (inactive) | 37.8 µM (inactive) | 18.9 µM (inactive) | > 100 µM (inactive) | 68.4 µM (inactive) | 19.1 µM (inactive) | > 100 µM (inactive) | 43.4 µM (inactive) | 99.1 µM (inactive) | 23.1 µM (inactive) | > 100 µM (inactive) | 55.6 µM (inactive) | – | – | – |
| COc1ccc2cc1Oc1ccc(cc1)CC1c3c(cc(OC)c4c3Oc3cc5c(cc3O4)CCNC5C2)CCN1C (stereo not given) | 3.6 µM (inactive) | 1.67 µM (inactive) | 2.33 µM (inactive) | 1.72 µM (inactive) | 1.85 µM (inactive) | – | – | 1.95 µM (inactive) | 1.88 µM (inactive) | 1.88 µM (inactive) | 5.52 µM (inactive) | – | 1.8 µM (inactive) | – | 1.91 µM (inactive) | 1.86 µM (inactive) | 2.45 µM (inactive) | 2.09 µM (inactive) | 2.1 µM (inactive) |
| Cc1[nH]c(=O)nc(S)c1C(=O)Nc1cccc2cc3ccccc3cc12 | > 100 µM (inactive) | – | > 100 µM (inactive) | > 100 µM (inactive) | > 100 µM (inactive) | – | > 100 µM (inactive) | > 100 µM (inactive) | > 100 µM (inactive) | > 100 µM (inactive) | > 100 µM (inactive) | – | > 100 µM (inactive) | > 100 µM (inactive) | > 100 µM (inactive) | > 100 µM (inactive) | > 100 µM (inactive) | > 100 µM (inactive) | > 100 µM (inactive) |
| O=C1OC[C@@H]2Cc3cc4c(cc3[C@H](c3ccc5c(c3)OCO5)[C@@H]12)OCO4 | > 25 µM (inactive) | > 25 µM (inactive) | 13.9 µM (inactive) | > 25 µM (inactive) | 24.2 µM (inactive) | 22.7 µM (inactive) | 24.1 µM (inactive) | – | > 25 µM (inactive) | > 25 µM (inactive) | – | > 25 µM (inactive) | 13.3 µM (inactive) | 12 µM (inactive) | 21.9 µM (inactive) | > 25 µM (inactive) | – | > 25 µM (inactive) | – |
| Cc1c(C(=O)CC(=O)C(=O)Nc2c(C(C)C)cccc2C(C)C)[n+]([O-])c2ccccc2[n+]1[O-] | 21.3 µM (inactive) | 3.36 µM (inactive) | 3.48 µM (inactive) | 3.76 µM (inactive) | – | – | 3.56 µM (inactive) | 5.01 µM (inactive) | 13.7 µM (inactive) | 2.52 µM (inactive) | 22.6 µM (inactive) | 5.21 µM (inactive) | – | 6.12 µM (inactive) | 3.15 µM (inactive) | 26.1 µM (inactive) | 16.1 µM (inactive) | 7.19 µM (inactive) | 29.4 µM (inactive) |
| N#CCCC1(CCC#N)S(=O)(=O)OCCOS1(=O)=O | > 100 µM (inactive) | > 100 µM (inactive) | 20.7 µM (inactive) | 85.9 µM (inactive) | 34.2 µM (inactive) | – | 45.9 µM (inactive) | 32.9 µM (inactive) | 50 µM (inactive) | 32.4 µM (inactive) | 41.5 µM (inactive) | 21.6 µM (inactive) | 47.6 µM (inactive) | – | 29.6 µM (inactive) | > 100 µM (inactive) | – | 46.1 µM (inactive) | – |
| CCCCCCCCNC(=O)C1=C(C)NC(C)=C(C(=O)NCCCCCCCC)C1 | > 100 µM (inactive) | > 100 µM (inactive) | > 100 µM (inactive) | > 100 µM (inactive) | > 100 µM (inactive) | 69.3 µM (inactive) | 82.8 µM (inactive) | > 100 µM (inactive) | – | 92.7 µM (inactive) | > 100 µM (inactive) | > 100 µM (inactive) | 44.8 µM (inactive) | > 100 µM (inactive) | > 100 µM (inactive) | > 100 µM (inactive) | > 100 µM (inactive) | – | – |
| COc1cc(OC)cc(-n2c(N)c(C#N)c3ccc([N+](=O)[O-])cc3c2=O)c1 | – | 35 µM (inactive) | 16.6 µM (inactive) | > 100 µM (inactive) | – | 37.5 µM (inactive) | > 100 µM (inactive) | 32.4 µM (inactive) | 43.1 µM (inactive) | 28.3 µM (inactive) | 23.9 µM (inactive) | 19 µM (inactive) | 63.2 µM (inactive) | 22.6 µM (inactive) | 20.4 µM (inactive) | 34.2 µM (inactive) | 19.1 µM (inactive) | – | 20 µM (inactive) |
| CCn1nc(C)c2c1C(=O)NC(C)C(=O)N2 (stereo not given) | > 100 µM (inactive) | > 100 µM (inactive) | > 100 µM (inactive) | > 100 µM (inactive) | – | – | > 100 µM (inactive) | > 100 µM (inactive) | > 100 µM (inactive) | > 100 µM (inactive) | – | – | > 100 µM (inactive) | – | 36.6 µM (inactive) | > 100 µM (inactive) | > 100 µM (inactive) | – | > 100 µM (inactive) |
| O=C(O)CCSC(=O)Nc1ccccc1F | > 100 µM (inactive) | – | > 100 µM (inactive) | > 100 µM (inactive) | – | – | > 100 µM (inactive) | > 100 µM (inactive) | > 100 µM (inactive) | > 100 µM (inactive) | > 100 µM (inactive) | > 100 µM (inactive) | – | > 100 µM (inactive) | > 100 µM (inactive) | > 100 µM (inactive) | – | – | > 100 µM (inactive) |
| CC(=O)N1C(C(=O)NC2CCCCC2)CSC1c1ccccc1 (stereo not given) | > 100 µM (inactive) | > 100 µM (inactive) | > 100 µM (inactive) | – | > 100 µM (inactive) | – | > 100 µM (inactive) | > 100 µM (inactive) | – | > 100 µM (inactive) | 51.6 µM (inactive) | > 100 µM (inactive) | > 100 µM (inactive) | > 100 µM (inactive) | > 100 µM (inactive) | > 100 µM (inactive) | 68.2 µM (inactive) | > 100 µM (inactive) | > 100 µM (inactive) |
| SC1=NC2=C(CSC/C2=C\c2ccc(Cl)cc2)C(c2ccc(Cl)cc2)N1 (stereo not given) | 72.4 µM (inactive) | 32 µM (inactive) | 42.5 µM (inactive) | 17.3 µM (inactive) | 30.8 µM (inactive) | 35.2 µM (inactive) | 29.6 µM (inactive) | 75.7 µM (inactive) | > 100 µM (inactive) | 40 µM (inactive) | – | 26.5 µM (inactive) | – | 28.6 µM (inactive) | 33.2 µM (inactive) | 36.6 µM (inactive) | 29.5 µM (inactive) | 26.4 µM (inactive) | – |
| CON(C(=O)OC(C)(C)C)c1ccccc1 | > 100 µM (inactive) | > 100 µM (inactive) | > 100 µM (inactive) | > 100 µM (inactive) | – | > 100 µM (inactive) | > 100 µM (inactive) | > 100 µM (inactive) | > 100 µM (inactive) | > 100 µM (inactive) | > 100 µM (inactive) | > 100 µM (inactive) | > 100 µM (inactive) | > 100 µM (inactive) | – | > 100 µM (inactive) | > 100 µM (inactive) | > 100 µM (inactive) | > 100 µM (inactive) |
| O=C(CSCC(=O)N/N=C/c1cccc(C(F)(F)F)c1)N/N=C/c1cccc(C(F)(F)F)c1 | > 100 µM (inactive) | > 100 µM (inactive) | – | – | > 100 µM (inactive) | – | > 100 µM (inactive) | > 100 µM (inactive) | > 100 µM (inactive) | > 100 µM (inactive) | > 100 µM (inactive) | – | > 100 µM (inactive) | > 100 µM (inactive) | – | > 100 µM (inactive) | > 100 µM (inactive) | > 100 µM (inactive) | > 100 µM (inactive) |
| CCOC(=O)/C(=C\NC(C)(C)CO)c1nc2ccccc2[nH]1 | > 100 µM (inactive) | > 100 µM (inactive) | 94 µM (inactive) | 58.9 µM (inactive) | 86.3 µM (inactive) | – | 88.7 µM (inactive) | 81.5 µM (inactive) | 77.8 µM (inactive) | 27.2 µM (inactive) | – | > 100 µM (inactive) | > 100 µM (inactive) | 75 µM (inactive) | > 100 µM (inactive) | 63.8 µM (inactive) | 77.4 µM (inactive) | > 100 µM (inactive) | 54.6 µM (inactive) |
| COC1C(OC(N)=O)C(O)C(Oc2ccc3c(O)c(NC(=O)c4ccc(O)c(CC=C(C)C)c4)c(=O)oc3c2C)OC1(C)C (stereo not given) | > 100 µM (inactive) | > 100 µM (inactive) | – | > 100 µM (inactive) | > 100 µM (inactive) | > 100 µM (inactive) | > 100 µM (inactive) | > 100 µM (inactive) | 73.8 µM (inactive) | > 100 µM (inactive) | – | > 100 µM (inactive) | 71.8 µM (inactive) | > 100 µM (inactive) | > 100 µM (inactive) | > 10 µM (inactive) | – | > 100 µM (inactive) | > 100 µM (inactive) |
